Measurements reported in patent publication US7037644B1, “Means and methods for monitoring non-nucleoside reverse transcriptase inhibitor antiretroviral therapy and guiding therapeutic decisions in the treatment of HIV/AIDS” (ViroLogic, Inc., priority 1998, dated 2006).
Entries after “also recorded” stand apart in the source; their conditions may differ.

Legend:
Format in all cases: cell-based, HIV-1
[1] = tested on: RTV-209, patient 97-209 (RT E138A, Y188L); experiment: Phenotypic susceptibility assay (patient RTV); conditions: patient RTV pool
Procedure: (§1) The resistance test vectors containing a functional luciferase gene cassette were constructed and host cells were transfected with the resistance test vector DNA. The resistant test vectors contained patient-derived reverse transcriptase and protease sequences that were either susceptible or resistant to the antiretroviral agents, such as nucleoside reverse transcriptase inhibitors, non-nucleoside reverse transcriptase inhibitors and protease inhibitors. […] The IC50 values were determined by plotting percent drug inhibition vs. log10 drug concentration.
(§2) Host cells were seeded in 10-cm-diameter dishes and were transfected several days after plating with resistance test vector plasmid DNA and the envelope expression vector. […] HIV capsid protein (p24) levels in the harvested cell culture media were determined by an EIA method as described by the manufacturer (SIAC; Frederick, Md.). […] The inhibitory effect of the drug was determined using the following equation: % luciferase inhibition=1−(RLUluc [drug]÷RLUluc)×100 where RLUluc [drug] is the relative light unit of luciferase activity in infected cells in the presence of drug and RLUluc is the Relative Light Unit of luciferase activity in infected cells in the absence of drug. […]

[2] = tested on: RTV with P236L plus K103N, Y181C or both; experiment: Phenotypic susceptibility assay (site directed mutant RTV); conditions: P236L with K103N and/or Y181C vs RTV lacking P236L
Text: (§3) The resistance test vectors containing a functional luciferase gene cassette were constructed and host cells were transfected with the resistance test vector DNA. The resistant test vectors contained patient-derived reverse transcriptase and protease sequences that were either susceptible or resistant to the antiretroviral agents, such as nucleoside reverse transcriptase inhibitors, non-nucleoside reverse transcriptase inhibitors and protease inhibitors. The resistance test vector viral particles produced by transfecting the resistance test vector DNA into host cells, either in the presence or absence of protease inhibitors, were used to infect target host cells grown either in the absence of NRTI or NNRTI or in the presence of increasing concentrations of the drug. The amount of luciferase activity produced in infected target host cells in the presence of drug was compared to the amount of luciferase produced in infected target host cells in the absence of drug. Drug resistance was measured as the amount of drug required to inhibit by 50% the luciferase activity detected in the absence of drug (inhibitory concentration 50%, IC50). The IC50 values were determined by plotting percent drug inhibition vs. log10 drug concentration.
(§4) Host cells were seeded in 10-cm-diameter dishes and were transfected several days after plating with resistance test vector plasmid DNA and the envelope expression vector. Transfections were performed using a calcium-phosphate precipitation procedure. The cell culture media containing the DNA precipitate was replaced with fresh medium, from one to 24 hours, after transfection. Cell culture media containing resistance test vector viral particles was harvested one to four days after transfection and was passed through a […] filter before being stored at […]. HIV capsid protein (p24) levels in the harvested cell culture media were determined by an EIA method as described by the manufacturer (SIAC; Frederick, Md.). Before infection, target cells (293 and 293/T) were plated in cell culture media. Control infections were performed using cell culture media from mock transfections (no DNA) or transfections containing the resistance test vector plasmid DNA without the envelope expression plasmid. One to three or more days after infection the media was removed and cell lysis buffer (Promega) was added to each well. Cell lysates were assayed for luciferase activity (FIG. 3). The inhibitory effect of the drug was determined using the following equation: % luciferase inhibition=1−(RLUluc [drug]÷RLUluc)×100 where RLUluc [drug] is the relative light unit of luciferase activity in infected cells in the presence of drug and RLUluc is the Relative Light Unit of luciferase activity in infected cells in the absence of drug. IC50 values were obtained from the sigmoidal curves that were generated from the data by plotting the percent inhibition of luciferase activity vs. the log10 drug concentration. The drug inhibition curves are shown in (FIG. 3).
(§5) Genotypic changes that are observed to correlate with changes in phenotypic patterns of drug susceptibility are evaluated by construction of resistance test vectors containing the specific mutation on a defined, wild-type (drug susceptible) genetic background. Mutations may be incorporated alone and/or in combination with other known drug resistance mutations that are thought to modulate the susceptibility of HIV to a certain drug or class of drugs. Mutations are introduced into the resistance test vector through any of the widely known methods for site-directed mutagenesis. In one embodiment of this invention the mega-primer PCR method for site-directed mutagenesis is used. […]

P225H-RTV = experiment: as above; conditions: P225H alone vs wild type control RTV
Text: as §3, §4, §5

[3] = tested on: RTV-302, patient 97-302 (RT K103N, I135M, T200A, P225H); experiment: Phenotypic susceptibility assay (patient RTV); conditions: patient virus RTV-302
Procedure: as §1, §2
A resistance test vector was constructed as described in example 1 from a patient sample designated as 97-302. […] An IC50 was determined for each drug tested. […]

[4] = tested on: RTV-644 (RT K101E, G190S); experiment: Phenotypic susceptibility assay (patient RTV); conditions: for decrease in susceptibility (fold, IC50): patient RTV pool; for change in susceptibility: patient virus vs reference virus
Text: as §3
as §4, with “Control infections were performed using cell culture media from mock transfections (no DNA) or transfections containing the resistance test vector plasmid DNA without the envelope expression plasmid. One to three or more days after infection the media was removed and cell lysis buffer (Promega) was added to each well. Cell lysates were assayed for luciferase activity (FIG. 3).” left out, “IC50 values were obtained from the sigmoidal curves that were generated from the data by plotting the percent inhibition of luciferase activity vs. the log10 drug concentration. The drug inhibition curves are shown in (FIG. 3).” left out
A resistance test vector was constructed as described in Example 1 from a patient sample designated 97-644. […] RTV-644 was then tested using the phenotypic susceptibility assay to determine accurately and quantitatively the level of susceptibility to a panel of anti-retroviral drugs. […] An IC50 was determined for each drug tested. […]

Row | Structure (SMILES) | decrease in susceptibility (fold, IC50) [1] | change in susceptibility [2] | change in susceptibility (P225H-RTV) | change in susceptibility [3] | decrease in susceptibility (fold, IC50) [4] [fold] | change in susceptibility [4]
1 | CC(C)Nc1cccnc1N1CCN(C(=O)c2cc3cc(NS(C)(=O)=O)ccc3[nH]2)CC1 [delavirdine] | 75 fold | less susceptible; also recorded: additional reduction; also recorded: severe resistance | more susceptible; also recorded: increase; also recorded: increase3s susceptibility | modest decrease; also recorded: reduced susceptibility | 2.5 | little or no resistance
2 | O=C1Nc2ccc(Cl)cc2[C@@](C#CC2CC2)(C(F)(F)F)O1 [efavirenz] | – | restores a significant portion of the loss of susceptibility | – | – | – | –
3 | Cc1ccnc2c1NC(=O)c1cccnc1N2C1CC1 [nevirapine] | greater than 800 fold | – | No significant change; also recorded: little or no change | significant decrease; also recorded: reduced susceptibility | 600 | resistant
